Assay results reported in article PMC4607644 (Bioorganic & medicinal chemistry letters, 2015).
Read-outs that look alike come from different tables or passages of the source.

Legend:
[1] = design: species or system mice; conditions: mouse, in vivo
[2] = design: species or system baboon; conditions: in vivo
M. tuberculosis = conditions: cited from earlier work
InhA = conditions: binds preferentially to InhA:NAD+ complex; cited from earlier work
[3] = in vivo, iv
PET brain uptake = conditions: baboon, i.v.
[4] = test system: Staphylococcus aureus FabI (saFabI); conditions: cited from earlier work
MRSA = conditions: cited from earlier work
[5] = Phase 1 and 2 metabolism; cited from earlier work

CCCCCCc1ccc(Oc2ccccc2[11CH3])c(O)c1 [[^11C]PT70]
concentration in the liver versus other peripheral organs [1]: much higher in the liver
time of highest concentration of drug after injection [1]: 20 min
elimination into the bladder ([2]; baboon): another large portion of the injected [11C]PT-70 was eliminated into the bladder
clearance from the heart, lung and blood ([2]; iv): cleared rapidly

CCCCCCc1ccc(Oc2ccccc2C)c(O)c1 [PT70]
antibacterial activity in a mouse model of tuberculosis infection (M. tuberculosis): shows antibacterial activity
bacterial burden in the lungs (M. tuberculosis; infected mice, lungs): did not affect the bacterial burden
bacterial load in the spleens (M. tuberculosis; infected mice, spleens): reduced the bacterial load
residence time on the target (InhA): 24 min
ability to penetrate the blood brain barrier (BBB) [3]: able to penetrate the brain

CCCCCCc1ccc(Oc2ccccc2C#N)c(O)c1 [PT119]
ability to penetrate the blood brain barrier (BBB) (PET brain uptake; images acquired for 90 min): able to penetrate the brain
propensity to cross the BBB, qualitative comparison (PET brain uptake; qualitative): higher propensity to cross the BBB than PT70
residence time on saFabI [4]: ~ 12.5 h
efficacy in a mouse model of MRSA infection (MRSA): demonstrates efficacy

CCCCCCc1ccc(Oc2ccccc2)c(O)c1 [PT04]
route of metabolism [5]: O-glucuronidation was a primary route for metabolism
